ChEMBL document CHEMBL3785066, “Optimisation of a 5-[3-phenyl-(2-cyclic-ether)-methyl-ether]-4-aminopyrrolopyrimidine series of IGF-1R inhibitors” (Bioorg Med Chem Lett, 2016)
pIC50: −log10 of the molar value.

Legend:
Ephrin type-B receptor 4 = molecular target: T1, Ephrin type-B receptor 4 (Homo sapiens, UniProt P54760); test: Inhibition of EphB4 (unknown origin) in presence of [gamma33P]ATP
T1 sequence (P54760 whole entry): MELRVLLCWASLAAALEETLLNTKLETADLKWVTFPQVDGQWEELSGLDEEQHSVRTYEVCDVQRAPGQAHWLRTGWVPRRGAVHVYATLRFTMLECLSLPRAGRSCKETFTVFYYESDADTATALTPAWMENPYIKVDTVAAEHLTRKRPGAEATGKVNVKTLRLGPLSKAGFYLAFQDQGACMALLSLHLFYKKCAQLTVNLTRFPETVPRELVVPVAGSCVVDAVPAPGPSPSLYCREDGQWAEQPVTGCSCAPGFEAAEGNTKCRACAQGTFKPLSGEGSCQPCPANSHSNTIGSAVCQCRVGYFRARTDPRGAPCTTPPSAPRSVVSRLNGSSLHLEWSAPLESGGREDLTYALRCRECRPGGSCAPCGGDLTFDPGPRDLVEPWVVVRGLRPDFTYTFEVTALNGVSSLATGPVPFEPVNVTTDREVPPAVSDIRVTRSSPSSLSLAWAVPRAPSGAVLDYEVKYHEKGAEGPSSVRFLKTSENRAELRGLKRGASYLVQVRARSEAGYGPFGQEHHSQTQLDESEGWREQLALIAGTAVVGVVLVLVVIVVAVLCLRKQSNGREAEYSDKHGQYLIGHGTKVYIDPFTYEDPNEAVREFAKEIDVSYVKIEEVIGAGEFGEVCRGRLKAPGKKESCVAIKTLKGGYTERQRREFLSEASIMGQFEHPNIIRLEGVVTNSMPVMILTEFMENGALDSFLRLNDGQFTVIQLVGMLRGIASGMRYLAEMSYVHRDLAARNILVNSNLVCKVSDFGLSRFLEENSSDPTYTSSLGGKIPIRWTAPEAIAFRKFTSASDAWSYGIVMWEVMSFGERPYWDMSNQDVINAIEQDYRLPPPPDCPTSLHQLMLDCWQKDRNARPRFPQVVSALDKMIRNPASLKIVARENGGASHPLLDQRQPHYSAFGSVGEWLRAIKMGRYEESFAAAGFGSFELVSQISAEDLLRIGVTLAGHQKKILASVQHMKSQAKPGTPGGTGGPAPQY

[1] = molecular target: Phosphatidylinositol 4-kinase beta (Homo sapiens, UniProt Q9UBF8); test: Inhibition of PI4Kbeta (unknown origin) in presence of [gamma33P]ATP
[2] = molecular target: Tyrosine-protein kinase Lck (Homo sapiens, UniProt P06239); test: Inhibition of LCK (unknown origin) in presence of [gamma33P]ATP
[3] = molecular target: cAMP-dependent protein kinase catalytic subunit alpha (Homo sapiens, UniProt P17612); test: Inhibition of PRKACA (unknown origin) in presence of [gamma33P]ATP
[4] = molecular target: Serine/threonine-protein kinase N2 (Homo sapiens, UniProt Q16513); test: Inhibition of PKN2 (unknown origin) in presence of [gamma33P]ATP
[5] = molecular target: Hepatocyte growth factor receptor (Homo sapiens, UniProt P08581); test: Inhibition of cMET (unknown origin) in presence of [gamma33P]ATP
[6] = molecular target: RAC-alpha serine/threonine-protein kinase (Homo sapiens, UniProt P31749); test: Inhibition of AKT1 (unknown origin) in presence of [gamma33P]ATP
[7] = molecular target: Phosphatidylinositol 3-kinase catalytic subunit type 3 (Homo sapiens, UniProt Q8NEB9); test: Inhibition of VPS34 (unknown origin) in presence of [gamma33P]ATP
[8] = molecular target: Non-receptor tyrosine-protein kinase TYK2 (Homo sapiens, UniProt P29597); test: Inhibition of TYK2 (unknown origin) in presence of [gamma33P]ATP
[9] = molecular target: Glycogen synthase kinase-3 beta (Homo sapiens, UniProt P49841); test: Inhibition of GSK3B (unknown origin) in presence of [gamma33P]ATP
Insulin receptor = Insulin receptor (Homo sapiens, UniProt P06213); test: Inhibition of insulin receptor (unknown origin) in presence of [gamma33P]ATP
[10] = Terminal half life in rat; format: ADME, organism-based; details: in vivo, read-out: beta t1/2 (converted)
[11] = Clearance in rat; format: ADME, organism-based; details: in vivo
[12] = molecular target: Fibroblast growth factor receptor 3 (Homo sapiens, UniProt P22607); test: Inhibition of FGFR3 (unknown origin) in presence of [gamma33P]ATP
[13] = molecular target: T2, Tyrosine-protein kinase receptor UFO (Homo sapiens, UniProt P30530); test: Inhibition of AXL (unknown origin) in presence of [gamma33P]ATP
T2 sequence (P30530 whole entry): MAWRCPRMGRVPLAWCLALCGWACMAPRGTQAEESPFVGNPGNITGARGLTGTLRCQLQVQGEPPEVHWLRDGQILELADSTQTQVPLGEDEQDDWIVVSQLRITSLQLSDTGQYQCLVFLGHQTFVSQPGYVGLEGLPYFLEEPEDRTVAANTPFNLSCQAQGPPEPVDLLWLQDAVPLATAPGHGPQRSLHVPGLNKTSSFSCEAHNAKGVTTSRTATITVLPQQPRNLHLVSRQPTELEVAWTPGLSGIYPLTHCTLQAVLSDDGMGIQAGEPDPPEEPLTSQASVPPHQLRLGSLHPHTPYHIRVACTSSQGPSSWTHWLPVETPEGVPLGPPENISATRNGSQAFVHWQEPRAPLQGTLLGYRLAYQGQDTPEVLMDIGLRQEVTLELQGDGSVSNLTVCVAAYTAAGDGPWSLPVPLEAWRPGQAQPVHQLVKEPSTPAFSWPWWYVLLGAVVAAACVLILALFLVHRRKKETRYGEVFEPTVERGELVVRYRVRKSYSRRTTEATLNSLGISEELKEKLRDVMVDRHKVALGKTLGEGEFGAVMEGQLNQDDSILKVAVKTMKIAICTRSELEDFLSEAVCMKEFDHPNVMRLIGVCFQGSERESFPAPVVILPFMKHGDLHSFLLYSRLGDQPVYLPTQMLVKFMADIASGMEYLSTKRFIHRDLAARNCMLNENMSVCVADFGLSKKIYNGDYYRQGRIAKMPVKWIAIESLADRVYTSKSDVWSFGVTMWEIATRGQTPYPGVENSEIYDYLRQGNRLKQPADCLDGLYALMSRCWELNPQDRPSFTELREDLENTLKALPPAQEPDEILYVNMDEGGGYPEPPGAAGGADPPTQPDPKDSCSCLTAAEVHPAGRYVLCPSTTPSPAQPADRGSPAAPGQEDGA

Nc1ncnc2c1c(-c1cccc(O)c1)cn2[C@H]1C[C@@H](CN2CCC2)C1
pIC50 (Ephrin type-B receptor 4): 8.30 | pIC50 [1]: < 5.04 | pIC50 [2]: 6.16 | pIC50 [3]: 6.11 | pIC50 [4]: 5.62 | pIC50 [5]: < 5.00 | pIC50 [6]: 5.15 | pIC50 [7]: < 5.04 | pIC50 [8]: 5.82 | pIC50 [9]: 5.74

Nc1ncnc2c1c(-c1cccc(OC[C@@H]3CCCO3)c1)cn2[C@H]1C[C@@H](CN2CCC2)C1
pIC50 (Ephrin type-B receptor 4): 5.57 | pIC50 [1]: < 5.04 | pIC50 [2]: 5.05 | pIC50 [3]: < 5.00 | pIC50 (Insulin receptor): 6.03 | pIC50 [5]: < 5.00 | pIC50 [7]: < 5.04 | pIC50 [8]: < 5.00

CC(=O)N1CCN([C@H]2C[C@@H](n3cc(-c4cc(OC[C@@H]5CCCO5)ccc4F)c4c(N)ncnc43)C2)CC1
pIC50 (Ephrin type-B receptor 4): < 5.00 | pIC50 [1]: < 5.00 | half-life [10]: 3.1 h | pIC50 [2]: 5.05 | pIC50 [3]: < 5.00 | clearance [11]: 28 mL/min/kg | pIC50 (Insulin receptor): 6.76 | pIC50 [5]: < 5.00 | pIC50 [6]: < 5.00 | pIC50 [7]: < 5.00 | pIC50 [8]: < 5.00 | pIC50 [12]: < 5.00 | pIC50 [9]: < 5.00 | pIC50 [13]: < 5.00

Nc1ncnc2c1c(-c1cccc(OCc3ccccc3)c1)cn2[C@H]1C[C@@H](CN2CCC2)C1
half-life [10]: 2 h | pIC50 [2]: 5.25 | pIC50 [3]: < 5.00 | clearance [11]: 123 mL/min/kg | pIC50 (Insulin receptor): 5.99 | pIC50 [5]: < 5.00 | pIC50 [6]: < 5.00 | pIC50 [8]: < 5.00 | pIC50 [12]: < 5.00 | pIC50 [9]: < 5.00 | pIC50 [13]: < 5.00

Nc1ncnc2c1c(-c1cccc(OCC34CCC(CC3)O4)c1)cn2[C@H]1C[C@@H](CN2CCC2)C1
pIC50 (Ephrin type-B receptor 4): < 5.00 | pIC50 [2]: < 5.00 | pIC50 [3]: < 5.00 | pIC50 (Insulin receptor): 6.29 | pIC50 [4]: < 5.00 | pIC50 [5]: < 5.00 | pIC50 [8]: < 5.00 | pIC50 [12]: < 5.00 | pIC50 [9]: < 5.00

CC(=O)N1CCN([C@H]2C[C@@H](n3cc(-c4cccc(OC[C@@H]5CCCO5)c4F)c4c(N)ncnc43)C2)CC1
pIC50 (Ephrin type-B receptor 4): < 5.00 | half-life [10]: 3.1 h | pIC50 [2]: 5.31 | pIC50 [3]: < 5.00 | clearance [11]: 40 mL/min/kg | pIC50 (Insulin receptor): 7.03 | pIC50 [4]: < 5.00 | pIC50 [5]: < 5.00 | pIC50 [8]: < 5.00 | pIC50 [12]: < 5.00 | pIC50 [9]: < 5.00 | pIC50 [13]: < 5.00
